Measurements published in patent EP4682141A1, “TRICYCLIC COMPOUND” (ONO Pharmaceutical Co., Ltd., priority 2023, dated 2024).

Legend:
EP2 = molecular target: T1, EP2 (Homo sapiens, UniProt P43116); assay: agonist activity on human EP2 receptor (cAMP production, EP2-CHO cells); assay type: cell-based
T1 construct: expressed in transfected cells; host or cells: CHO (EP2-CHO)
Experimental: (§1) Using CHO cells (EP1-CHO, EP2-CHO, EP3-Chem1, EP4-CHO and IP-CHO) on which various human prostanoid receptors were forcibly expressed, the agonist activity of the test compound on the various prostanoid receptors was examined using the intracellular calcium concentration for EP1 and EP3, and the intracellular cyclic AMP (hereinafter, abbreviated as cAMP) production amount for EP2, EP4 and IP as indices.
(§2) The test compound and control substances (PGE2 and iloprost) were dissolved in dimethyl sulfoxide (DMSO) to prepare a 10 mmol/L solution. […]
(§3) On the day of the measurement, EP2-CHO, EP4-CHO, and IP-CHO were obtained by thawing frozen cells. […] The cAMP concentration was measured using a cAMP HTRF HiRange kit (CIS bio International). […] After incubation for 1 hour, time-resolved fluorescence at 620 nm and 660 nm when excited at 340 nm was measured using Synergy Neo (Bioteck), and the ratio (TRF ratio) was determined to calculate the cAMP concentration from the calibration curve.

IP = molecular target: T2, IP (Homo sapiens, UniProt P43119); assay: agonist activity on human IP receptor (cAMP production, IP-CHO cells); assay type: cell-based
T2 construct: expressed in transfected cells; host or cells: CHO (IP-CHO)
Experimental: as §1, §2, §3

EP3 receptor = molecular target: T3, EP3 receptor (Homo sapiens, UniProt P43115); assay: agonist activity on human EP3 receptor (intracellular calcium concentration, EP3-Chem1 cells); assay type: cell-based; conditions: agonist activity on the EP3 receptor
T3 construct: expressed in transfected cells; host or cells: EP3-Chem1
T3 sequence (P43115 1-390): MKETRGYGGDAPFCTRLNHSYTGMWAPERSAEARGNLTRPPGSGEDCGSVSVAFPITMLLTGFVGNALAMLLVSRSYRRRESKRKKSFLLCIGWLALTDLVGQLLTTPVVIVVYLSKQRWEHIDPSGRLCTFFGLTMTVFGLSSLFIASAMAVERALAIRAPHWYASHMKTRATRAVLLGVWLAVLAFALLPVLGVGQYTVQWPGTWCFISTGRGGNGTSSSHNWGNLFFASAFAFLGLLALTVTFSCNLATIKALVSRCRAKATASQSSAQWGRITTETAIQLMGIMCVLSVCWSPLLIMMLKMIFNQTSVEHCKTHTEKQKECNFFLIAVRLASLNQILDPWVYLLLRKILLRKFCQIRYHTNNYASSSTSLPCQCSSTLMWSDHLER
Experimental: as §1
(§4) The test compound and control substances (PGE2 and iloprost) were dissolved in dimethyl sulfoxide (DMSO) to prepare a 10 mmol/L solution. The prepared 10 mmol/L solution was thawed at the time of use, serially diluted using DMSO, and diluted with a buffer solution 1 for measurement (Hank's balanced salt solution (Thermofischer scientific) containing 1 w/v% human serum albumin (Sigma), 2 µmol/L indomethacin (Sigma), 2.5 mmol/L probenecid, and 10 mmol/L HEPES-NaOH (pH7.4)) or a buffer solution 2 for measurement (D-PBS (Nacalai Tesque) containing 0.1 w/v% human serum albumin, 2 µmol/L diclofenac (Sigma), and 1 mmol/L 3-isobutyl-1-methylxanthine (Sigma)) to perform experiments.

EP1 = molecular target: T4, EP1 (Homo sapiens, UniProt P34995); assay: agonist activity on human EP1 receptor (intracellular calcium concentration, EP1-CHO cells); assay type: cell-based
T4 construct: expressed in transfected cells; host or cells: CHO (EP1-CHO)
T4 sequence (P34995 1-402): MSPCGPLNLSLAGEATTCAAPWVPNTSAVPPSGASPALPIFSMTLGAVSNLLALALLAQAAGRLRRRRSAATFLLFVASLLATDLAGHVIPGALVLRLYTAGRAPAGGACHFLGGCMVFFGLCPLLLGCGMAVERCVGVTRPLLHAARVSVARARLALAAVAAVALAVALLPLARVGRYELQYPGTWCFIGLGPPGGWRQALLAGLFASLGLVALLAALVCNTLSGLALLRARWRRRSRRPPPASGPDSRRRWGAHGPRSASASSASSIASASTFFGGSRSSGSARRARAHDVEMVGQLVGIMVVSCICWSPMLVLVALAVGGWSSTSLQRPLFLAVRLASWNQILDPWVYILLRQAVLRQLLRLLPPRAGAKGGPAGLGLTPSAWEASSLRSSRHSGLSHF
Experimental: as §1, §4
The intracellular calcium concentration was measured using Calcium 6 Assay Kit (Molecular Devices). On the day before the measurement, EP1-CHO and EP3-Chem 1 were obtained by thawing the frozen cells, suspended using Ham's F-12 medium (Thermofischer scientific) containing inactivated (56°C, 30 min) 9.8 vol% FBS (Thermofischer scientific) and penicillin-streptomycin (Nacalai Tesque), seeded into a 96 well UV plate to 1.0×10^5 cells per well, and static cultured at 37°C in the presence of 5%CO2. On the day of the measurement, the medium was removed, followed by addition of 120 µL of the Calcium indication solution dissolved in the buffer solution 1 for measurement and incubation at room temperature under light-shielding for about 1 hour. After 1 hour incubation, the 96 well UV plates were set in a fluorescence spectrophotometer (FDSS-7000, Hamamatsu Photonics) to measure the intracellular calcium concentration. Thirty microliters of the buffer solution 1 for measurement containing various concentrations of agonists were added, and the mixture was reacted. The intracellular calcium concentration was measured by irradiating the cells with 480 nm excitation light and measuring the fluorescence intensity at 540 nm.

EP4 = molecular target: T5, EP4 (Homo sapiens, UniProt P35408); assay: agonist activity on human EP4 receptor (cAMP production, EP4-CHO cells); assay type: cell-based
T5 construct: expressed in transfected cells; host or cells: CHO (EP4-CHO)
Experimental: as §1, §2, §3

[1] = tested on: diabetic renal disease model rat; assay: in vivo drug efficacy in diabetic renal disease model rat (single kidney removal, saline); design: species or system SDT.Cg-Leprfa/JttJcl (SDT-fatty rat); conditions: 0.1 mg/kg orally once a day for 8 weeks in combination with losartan (30 mg/kg) and canagliflozin (10 mg/kg); 8 weeks after the start of administration
Experimental: A diabetic renal disease model was created by extracting the unilateral kidneys of male SDT.Cg-Leprfa/JttJcl (SDT-fatty/Jcl, CLEA Japan) rats, a type 2 diabetes model, and then giving saline. The in vivo drug efficacy of the present compound on diabetic renal disease was evaluated in this model.
Male SDT.Cg-Leprfa/JttJcl (SDT-fatty rat) aged 4 weeks was purchased from CLEA Japan, and subjected to experiments. The animals were fed ad libitum with Purina5008 (Japan SLC) from the time of arrival, and watered ad libitum. Water was given from the arrival and until 1 week from single kidney removal, and a 0.2 w/v% NaCl solution was given 1 week after single kidney removal.
After acclimation breeding, the body weight was measured, and buprenorphine was subcutaneously administered at a dose of 0.01 mg/kg under inhalation anesthesia with isoflurane (Mayran). After removing hair from the right abdomen of the rat, the right abdomen was disinfected with ethanol and isodine for disinfection and incised to expose the right kidney. The renal artery and vein was ligated with a suture to stop the blood flow, the right kidney was totally removed, and the incision was sutured. The following day, analgesic buprenorphine was administered subcutaneously at a dose of 0.01 mg/kg.
Grouping was performed 3 weeks after single kidney removal. The mice were divided into groups so that the average of the above parameters was almost equal between the groups on the basis of body weight, serum urea nitrogen (BUN), serum creatinine (S-CRE), serum total cholesterol (T-CHO), blood glucose level (GLU), neutral fat (TG), urinary protein (U-TP), urinary albumin (U-ALB), and creatinine clearance (CCr).
All of the compounds of Examples 25-7, 10, 11 and 12 were orally administered once a day for 8 weeks in combination with losartan (30 mg/kg), a renin angiotensin system inhibitor, and canagliflozin (10 mg/kg), a glucose co-transporter inhibitor. The compounds of Examples 25-7, 10, 11 and 12, and losartan were each dissolved in water for injection (Otsuka Pharmaceutical), and canagliflozin was suspended in a 0.5% methyl cellulose solution (Fujifilm Wako Pure Chemical Corporation) to prepare an administration solution. In the Control-1 group, water for injection which is a vehicle of losartan or the compound of Examples 25-7, 10, 11 or 12 was orally administered at 5 mL/kg, and a 0.5% methylcellulose solution which is a vehicle of canagliflozin was orally administered at 2.5 mL/kg once a day for 8 weeks. In the Control-2 group, losartan (30 mg/kg) dissolved in water for injection was orally administered at an administration volume of 2.5 mL/kg, canagliflozin (10 mg/kg) suspended in a 0.5% methyl cellulose solution was orally administered at an administration volume of 2.5 mL/kg, and water for injection which is a vehicle of the compounds of Examples 25-7, 10, 11 and 12 was orally administered at an administration volume of 2.5 mL/kg once a day for 8 weeks. The administration dose is described in Table 8.
Blood was collected by puncturing the tail vein of the rat with an injection needle. Blood was collected in a tube for serum separation (BD Microtainer) and centrifuged to obtain serum. Urine was collected for 24 hours in a metabolic cage for rat under conditions in which a solid feed and water can be freely taken. The obtained urine sample was centrifuged, and the supernatant was subjected to measurement. The concentrations of BUN, S-CRE, T-CHO, TG, U-ALB, U-TP, GLU and U-CRE were measured by an automatic analyzer Hitachi 7180 (Hitachi High-Tech).

diabetes model rat = assay: inhibitory effect on the amount of albumin excreted in urine in diabetes model rat; assay type: in vivo, SDT Fatty rats; conditions: urine collected for 24 hours, urine albumin/urine creatinine ratio
Experimental: Male SDT Fatty rats aged 6 weeks (CLEA Japan) were purchased and preliminarily bred for 1 week or more. Experiments were performed at 8 to 16 weeks of age. The animals were fed ad libitum with solid feed CRF-1 (Oriental Yeast) and watered ad libitum.
Animals were housed in metabolic cages 2 days before test substance administration, and urine was collected for 24 hours. On the day before administration of the test substance, urine albumin and urine creatinine were measured, and grouping was performed by a stratification randomization method based on the urine albumin/urine creatinine ratio (ACR) and the average value of body weights for each group.
The compounds (test substances) of Examples 9-5, 10, 11, 12, 25-7 and 32, and water for injection (Otsuka Pharmaceutical) as a vehicle were orally administered once at 5 mL/kg. The administration dose is described in Table 3.
For evaluation of the amount of albumin excreted in urine of each animal, a urine albumin/urine creatinine ratio (ACR) was measured. After administration of the test substance, the animals were housed in metabolic cages, and urine was collected for 24 hours. Each concentration of urine albumin and urine creatinine was measured using an automatic analyzer 7180 (Hitachi High-Tech), and ACR was calculated by dividing the urine albumin concentration by the urine creatinine concentration.

[2] = tested on: rat 5/6 kidney-removed model; assay: in vivo drug efficacy on renal damage in rat 5/6 kidney-removed model; design: species or system Jcl: Wistar (Wistar) rats; conditions: 0.1 mg/kg orally once a day for 8 weeks; after 8 weeks from the start of administration
From the text: The obtained urine sample was centrifuged, and the supernatant was subjected to measurement.

T2 sequence (P43119 whole entry): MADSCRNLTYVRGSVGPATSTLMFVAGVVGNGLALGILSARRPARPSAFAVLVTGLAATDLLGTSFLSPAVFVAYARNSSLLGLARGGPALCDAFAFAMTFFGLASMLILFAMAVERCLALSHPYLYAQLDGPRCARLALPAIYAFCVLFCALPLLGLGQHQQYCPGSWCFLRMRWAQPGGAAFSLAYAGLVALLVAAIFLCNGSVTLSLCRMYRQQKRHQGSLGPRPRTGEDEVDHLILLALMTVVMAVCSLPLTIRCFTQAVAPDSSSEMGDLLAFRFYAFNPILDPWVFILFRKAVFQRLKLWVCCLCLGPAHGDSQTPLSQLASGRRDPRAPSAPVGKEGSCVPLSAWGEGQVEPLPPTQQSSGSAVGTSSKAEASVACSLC
T5 sequence (P35408 whole entry): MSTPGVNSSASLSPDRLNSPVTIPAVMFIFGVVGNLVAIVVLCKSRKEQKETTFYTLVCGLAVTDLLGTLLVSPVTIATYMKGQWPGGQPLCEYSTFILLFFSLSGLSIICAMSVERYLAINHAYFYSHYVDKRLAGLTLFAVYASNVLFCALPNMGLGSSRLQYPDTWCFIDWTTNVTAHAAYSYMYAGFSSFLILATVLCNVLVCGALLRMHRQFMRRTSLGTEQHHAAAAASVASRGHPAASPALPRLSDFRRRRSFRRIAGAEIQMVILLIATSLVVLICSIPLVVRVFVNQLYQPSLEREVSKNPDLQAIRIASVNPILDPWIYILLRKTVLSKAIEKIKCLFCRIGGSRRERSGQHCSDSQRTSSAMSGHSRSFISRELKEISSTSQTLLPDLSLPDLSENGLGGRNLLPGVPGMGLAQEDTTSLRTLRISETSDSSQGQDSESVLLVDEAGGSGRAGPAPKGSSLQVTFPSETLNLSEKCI
T1 sequence (P43116 whole entry): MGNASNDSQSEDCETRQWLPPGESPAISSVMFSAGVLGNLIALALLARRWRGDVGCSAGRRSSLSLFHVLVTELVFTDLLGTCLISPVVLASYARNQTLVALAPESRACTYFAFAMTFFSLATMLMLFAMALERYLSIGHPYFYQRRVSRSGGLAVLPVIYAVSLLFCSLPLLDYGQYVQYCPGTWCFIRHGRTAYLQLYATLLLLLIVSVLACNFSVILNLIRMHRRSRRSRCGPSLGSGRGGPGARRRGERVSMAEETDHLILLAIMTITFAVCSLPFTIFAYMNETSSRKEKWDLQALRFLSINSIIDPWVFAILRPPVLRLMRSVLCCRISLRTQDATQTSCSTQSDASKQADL

| Compound | EC50 (EP2) [µM] | EC50 (IP) [µM] | EC50 (EP3 receptor) [µM] | EC50 (EP1) [µM] | EC50 (EP4) [µM] | Serum creatinine mean [1] [mg/dL] | ACR mean (diabetes model rat; 0.01 mg/kg orally once) [µg/mg] | ACR mean (diabetes model rat; 0.1 mg/kg orally once) [µg/mg] | Amount of albumin excreted in urine mean [2] [mg/24 h] |
| --- | --- | --- | --- | --- | --- | --- | --- | --- | --- |
| (1R,2R,3aS,10aR)-2,5-difluoro-1-[(1E,3ξ)-3-hydroxy-4-methyl-4-phenyl-1-penten-yl]-2,3,3a,9,10,10a-hexahydro-1H-benzo[b]cyclopenta[f]oxepine-6-carboxylic acid [Example 28] | > 10 | > 10 | 0.03 | > 10 | 1.1 | – | – | – | – |
| CCC(CCC(C)C)C(O)/C=C/[C@@H]1[C@H]2CCc3ccc(C(=O)O)c(C)c3O[C@H]2C[C@H]1O (stereo partly drawn) [Example 10, (1R,2R,3aS,10aR)-1-[(1E,3ξ,4ξ)-4-ethyl-3-hydroxy-7-methyl-1-octen-1-yl]-2-hydroxy-5-methyl-2,3,3a,9,10,10a-hexahydro-1H-benzo[b]cyclopenta[f]oxepine-6-carboxylic acid] | – | – | – | > 10 | – | 0.50 | 909.3 | 751.6 | 35.47 |
